From patent US6787525B1, “Glyceryl nucleotides, method for the production thereof and their use” (priority 1998, dated 2004)

Legend:
[1] = tested on: OVCAR-8; test: In vitro cytostatic effect (SRB): OVCAR-8, Ovarian cancer
[2] = tested on: BT-549; test: In vitro cytostatic effect (SRB): BT-549, Breast cancer
[3] = tested on: NCI-H23; test: In vitro cytostatic effect (SRB): NCI-H23, Lung cancer
[4] = tested on: HCT-15; test: In vitro cytostatic effect (SRB): HCT-15, Intestinal cancer
[5] = tested on: SF-539; test: In vitro cytostatic effect (SRB): SF-539, Cancer of the central nervous system
[6] = tested on: CAKI-1; test: In vitro cytostatic effect (SRB): CAKI-1, Kidney cancer
[7] = tested on: MDA-N; test: In vitro cytostatic effect (SRB): MDA-N, Breast cancer
[8] = tested on: MALME-3M; test: In vitro cytostatic effect (SRB): MALME-3M, Melanoma
[9] = tested on: MDA-MB-231/ATCC; test: In vitro cytostatic effect (SRB): MDA-MB-231/ATCC, Breast cancer
[10] = tested on: SF-295; test: In vitro cytostatic effect (SRB): SF-295, Cancer of the central nervous system
[11] = tested on: SR; test: In vitro cytostatic effect (SRB): SR, Leukemia
[12] = tested on: RXF 393; test: In vitro cytostatic effect (SRB): RXF 393, Kidney cancer
[13] = tested on: OVCAR-3; test: In vitro cytostatic effect (SRB): OVCAR-3, Ovarian cancer
[14] = tested on: NCI-H460; test: In vitro cytostatic effect (SRB): NCI-H460, Lung cancer
[15] = tested on: HT29; test: In vitro cytostatic effect (SRB): HT29, Intestinal cancer
[16] = tested on: ACHN; test: In vitro cytostatic effect (SRB): ACHN, Kidney cancer
[17] = tested on: OVCAR-5; test: In vitro cytostatic effect (SRB): OVCAR-5, Ovarian cancer
[18] = tested on: UACC-62; test: In vitro cytostatic effect (SRB): UACC-62, Melanoma
[19] = tested on: SN12C; test: In vitro cytostatic effect (SRB): SN12C, Kidney cancer
[20] = tested on: HL-60(TB)
[21] = tested on: 768-0; test: In vitro cytostatic effect (SRB): 768-0, Kidney cancer
[22] = tested on: KM12; test: In vitro cytostatic effect (SRB): KM12, Intestinal cancer
[23] = tested on: SNB-75; test: In vitro cytostatic effect (SRB): SNB-75, Cancer of the central nervous system
[24] = tested on: U251; test: In vitro cytostatic effect (SRB): U251, Cancer of the central nervous system
[25] = tested on: T-47D; test: In vitro cytostatic effect (SRB): T-47D, Breast cancer
[26] = tested on: LOX IMVI; test: In vitro cytostatic effect (SRB): LOX IMVI, Melanoma
[27] = tested on: M14; test: In vitro cytostatic effect (SRB): M14, Melanoma
[28] = tested on: MOLT-4; test: In vitro cytostatic effect (SRB): MOLT-4, Leukemia
[29] = read-out: LC50, 48-hour incubation

Compound: CCCCCCCCCCCCCCCCCCOC(COP(=O)(O)OCC1OC(n2cc(F)c(=O)[nH]c2=O)CC1O)COP(=O)(O)OCC1OC(n2ccc(N)nc2=O)C(O)C1O (racemic) [NSC 698688-A/1, arabinocytidylyl-(5′→1)-2-O-octadecyl-rac-glycerylyl-(3→5′)-5-fluoro-2′-deoxyuridine]
- GI50 ([1]; 48-hour incubation): 0.968 µM
- TGI ([1]; 48-hour incubation): >1.00E − 04 mol/l
- CC50 [1, 29]: > 100 µM
- GI50 ([2]; 48-hour incubation): 14.5 µM
- TGI ([2]; 48-hour incubation): 8.69E − 05 mol/l
- CC50 [2, 29]: > 100 µM
- GI50 ([3]; 48-hour incubation): 7.23 µM
- TGI ([3]; 48-hour incubation): >1.00E − 04 mol/l
- CC50 [3, 29]: > 100 µM
- GI50 ([4]; 48-hour incubation): 14.4 µM
- TGI ([4]; 48-hour incubation): >1.00E − 04 mol/l
- CC50 [4, 29]: > 100 µM
- GI50 ([5]; 48-hour incubation): 0.488 µM
- TGI ([5]; 48-hour incubation): 1.03E − 05 mol/l
- CC50 [5, 29]: 80.3 µM
- GI50 ([6]; 48-hour incubation): 10.4 µM
- TGI ([6]; 48-hour incubation): >1.00E − 04 mol/l
- CC50 [6, 29]: > 100 µM
- GI50 ([7]; 48-hour incubation): > 100 µM
- TGI ([7]; 48-hour incubation): >1.00E − 04 mol/l
- CC50 [7, 29]: > 100 µM
- GI50 ([8]; 48-hour incubation): > 100 µM
- TGI ([8]; 48-hour incubation): >1.00E − 04 mol/l
- CC50 [8, 29]: > 100 µM
- GI50 ([9]; 48-hour incubation): > 100 µM
- TGI ([9]; 48-hour incubation): >1.00E − 04 mol/l
- CC50 [9, 29]: > 100 µM
- GI50 ([10]; 48-hour incubation): 0.799 µM
- TGI ([10]; 48-hour incubation): >1.00E − 04 mol/l
- CC50 [10, 29]: > 100 µM
- TGI ([11]; 48-hour incubation): >1.00E − 04 mol/l
- CC50 [11, 29]: > 100 µM
- GI50 ([12]; 48-hour incubation): 10.2 µM
- TGI ([12]; 48-hour incubation): 2.86E − 05 mol/l
- CC50 [12, 29]: 80 µM
- GI50 ([13]; 48-hour incubation): > 100 µM
- TGI ([13]; 48-hour incubation): >1.00E − 04 mol/l
- CC50 [13, 29]: > 100 µM
- GI50 ([14]; 48-hour incubation): 0.0466 µM
- TGI ([14]; 48-hour incubation): 2.79E − 05 mol/l
- CC50 [14, 29]: > 100 µM
- GI50 ([15]; 48-hour incubation): 12.5 µM
- TGI ([15]; 48-hour incubation): >1.00E − 04 mol/l
- CC50 [15, 29]: > 100 µM
- GI50 ([16]; 48-hour incubation): 0.466 µM
- TGI ([16]; 48-hour incubation): >1.00E − 04 mol/l
- CC50 [16, 29]: > 100 µM
- GI50 ([17]; 48-hour incubation): 89.6 µM
- TGI ([17]; 48-hour incubation): >1.00E − 04 mol/l
- CC50 [17, 29]: > 100 µM
- GI50 ([18]; 48-hour incubation): 1.77 µM
- TGI ([18]; 48-hour incubation): >1.00E − 04 mol/l
- CC50 [18, 29]: > 100 µM
- GI50 ([19]; 48-hour incubation): 13.3 µM
- TGI ([19]; 48-hour incubation): >1.00E − 04 mol/l
- CC50 [19, 29]: > 100 µM
- GI50 ([20]; Leukemia, 48-hour incubation): 3.66 µM
- TGI ([20]; Leukemia, 48-hour incubation): >1.00E − 04 mol/l
- CC50 ([20]; read-out: LC50, Leukemia, 48-hour incubation): > 100 µM
- GI50 ([21]; 48-hour incubation): 0.854 µM
- TGI ([21]; 48-hour incubation): 1.34E − 05 mol/l
- CC50 [21, 29]: 44.4 µM
- GI50 ([22]; 48-hour incubation): 74.7 µM
- TGI ([22]; 48-hour incubation): >1.00E − 04 mol/l
- CC50 [22, 29]: > 100 µM
- GI50 ([23]; 48-hour incubation): 20.4 µM
- TGI ([23]; 48-hour incubation): >1.00E − 04 mol/l
- CC50 [23, 29]: > 100 µM
- GI50 ([24]; 48-hour incubation): 3.14 µM
- TGI ([24]; 48-hour incubation): 2.48E − 05 mol/l
- CC50 [24, 29]: 73.8 µM
- GI50 ([25]; 48-hour incubation): > 100 µM
- TGI ([25]; 48-hour incubation): >1.00E − 04 mol/l
- CC50 [25, 29]: > 100 µM
- GI50 ([26]; 48-hour incubation): 1.4 µM
- TGI ([26]; 48-hour incubation): >1.00E − 04 mol/l
- CC50 [26, 29]: > 100 µM
- GI50 ([27]; 48-hour incubation): 3.53 µM
- TGI ([27]; 48-hour incubation): 8.62E − 05 mol/l
- CC50 [27, 29]: > 100 µM
- GI50 ([28]; 48-hour incubation): 0.467 µM
- TGI ([28]; 48-hour incubation): >1.00E − 04 mol/l
- CC50 [28, 29]: > 100 µM
